Measurements reported in publication PMC6678097, “Machilin A Inhibits Tumor Growth and Macrophage M2 Polarization Through the Reduction of Lactic Acid” (Cancers, 2019).

Legend:
[1] = tested on: LLC tumors; test: Tumor allograft model, LLC cells (tumor growth, immunohistochemistry); assay type: in vivo, C57BL/6 mice
Description: (§1) LLC and CT26 cells were suspended separately in PBS (5 × 10^5 cells/100 µL PBS) and inoculated in subcutaneously on the back of 7-week-old C57BL/6 mice and BALB/c mice respectively (Orient Bio Inc., Seongnam, Korea; n = 7). One day after the inoculation with tumor cells, mice of the control group (n = 7) were intraperitoneally administrated 100 µL of PBS per day for 18 days. Each of the MA-treated mice were intraperitoneally administrated 0.02, 0.2, or 1 mg MA, respectively, in 100 µL PBS per 20 g body weight, each day for 18 days. All mice were euthanized 19 days after inoculation with the tumor cells, and the tumors were excised and weighed. Length (l) and width (w) of each tumor were measured using a caliper, and the respective volume (V) was calculated according to the formula V = [(l × w^2)/2]. Tumors were immediately removed from euthanized mice and prepared for histological examinations. To test liver and kidney toxicity of MA, at the end of the in vivo allograft experiment blood was collected from each mouse and serum was separated. Biochemical analyses of aspartate aminotransferase (AST), alanine aminotransferase (ALT), creatinine, and blood urea nitrogen (BUN) were performed using a commercial service (Green Cross Co., Yongin, Korea). All experimental procedures followed the Guidelines for the Care and Use of Laboratory Animals of the National Institutes of Health of Korea, and were approved by the Institutional Animal Care and Use Committee of Pusan National University, Republic of Korea (PNU-2018-1954, Date of approval: 27th June 2018).
Tumor specimens were immediately removed from euthanized mice, fixed in PBS with 3.7% formalin, and embedded in paraffin for immunohistochemical analyses. The paraffin sections were immunostained using an antibody specific to the endothelial cell marker CD31 (ab28364, Abcam, Cambridge, UK), macrophage marker CD68 (ab125212, Abcam, Cambridge, UK), and M2 phenotype macrophage marker CD206 (ab64693, Abcam, Cambridge, UK). The staining was visualized using a Dako EnVision kit (Dako, Santa Clara, CA, USA), and counterstained with hematoxylin.

[2] = tested on: RAW264.7 macrophage cells; test: Viability of macrophage cells, MTT; assay type: cell-based; conditions: direct treatment, 24 h
Description: Figure S10. The viabilities of HUVECs and RAW264.7 cells on MA. (A) HUVECs were treated with indicated concentration of machilin A for 24 h. The viabilities of cells were evaluated by MTT assay.
(B ) HUVECs seeded to the Matrigel-coated wells treated with machilin A for 24 h. ( C) Raw 264.7 macrophage cells were treated with indicated concentration of machilin A for 24 h. The viabilities of cells were evaluated by MTT assay.
(1 picture or pasted object on this page, not shown here)

[3] = tested on: LDHA; test: LDHA expression, western blot; assay type: cell-based, human; conditions: normoxic and hypoxic conditions
Description: Total protein was extracted from each cell using 1% NP-40 lysis buffer (150 mM NaCl, 10 mM HEPES (pH 7.45), 1% NP-40, 5 mM Na pyrophosphate, 5 mM NaF, 2 mM Na3VO4) containing protease inhibitor cocktail tablets (Roche, Basel, Switzerland). Equal amounts (20 μg) of protein from each sample were fractionated using SDS-PAGE and the protein was then transferred onto nitrocellulose membranes (Hybond ECL; GE Healthcare, Chicago, IL, USA) using electrophoresis. The membranes were blocked for 1 h at room temperature using 5% non-fat dry milk and were then incubated with primary antibodies specific to the target protein at 4 °C overnight. The membranes were washed three times, and incubated with the respective secondary antibodies conjugated with horseradish peroxidase. The specific bands of targeted proteins were detected using ECL Plus (GE Healthcare, Chicago, IL, USA).

[4] = tested on: phospholipase Cγ1; set-up: method as in PMID 15554262; conditions: cited from earlier work
[5] = tested on: CT26 tumors; test: Tumor allograft model, CT26 cells; assay type: in vivo, BALB/c mice; conditions: 1, 10, or 50 µg/g body weight intraperitoneally daily
Description: as §1, with “All experimental procedures followed the Guidelines for the Care and Use of Laboratory Animals of the National Institutes of Health of Korea, and were approved by the Institutional Animal Care and Use Committee of Pusan National University, Republic of Korea (PNU-2018-1954, Date of approval: 27th June 2018).” left out

[6] = tested on: human liver cytochrome P450 2B6; conditions: cited from earlier work
[7] = tested on: Hep3B liver cancer cells; test: Colony formation assay; assay type: cell-based, human; conditions: three weeks
Description: (§2) Base agar (0.6%) was placed at the bottom of the 6-well culture plate. After 30 min at room temperature, top agar (0.4%) mixed with HT29 (1 × 10^4 cells) or Hep3B (1 × 10^4 cells) cells was added to the base agar. HT29 and Hep3B cells were incubated at 37 °C and 5% CO2 for three weeks. The colonies were stained using 0.005% crystal violet for 1 h after which they were photographed and counted.

[8] = tested on: HT29 colon cancer cells; test: Colony formation assay; assay type: cell-based, human; conditions: three weeks
Description: as §2

[9] = tested on: LDHA; test: LDH activity and LDHA expression in LLC tumor tissue lysates; assay type: in vivo, mice
Description: A purification of recombinant LDHA was performed as described previously. LDH activity was determined by measuring the decrease of absorbance at 340 nm due to the oxidation of NADH in 20 mM HEPES-K^+, 0.05% bovine serum albumin (BSA), 20 μM NADH, and 2 mM pyruvate (Sigma-Aldrich, St. Louis, MO, USA) at a pH of 7.2 using a spectrofluorometer (Spectramax M2, Molecular Devices, San Jose, CA, USA; excitation 340 nm; emission 460 nm), as described previously. Ten nanograms of recombinant LDHA protein were used in the in vitro LDH activity assay. One microgram of total protein from cell or tissue lysates was used for intracellular or in vivo LDH assays.
LLC and CT26 cells were suspended separately in PBS (5 × 10^5 cells/100 µL PBS) and inoculated in subcutaneously on the back of 7-week-old C57BL/6 mice and BALB/c mice respectively (Orient Bio Inc., Seongnam, Korea; n = 7). One day after the inoculation with tumor cells, mice of the control group (n = 7) were intraperitoneally administrated 100 µL of PBS per day for 18 days. Each of the MA-treated mice were intraperitoneally administrated 0.02, 0.2, or 1 mg MA, respectively, in 100 µL PBS per 20 g body weight, each day for 18 days. […] Length (l) and width (w) of each tumor were measured using a caliper, and the respective volume (V) was calculated according to the formula V = [(l × w^2)/2]. […]

SMILES: C[C@H](Cc1ccc2c(c1)OCO2)[C@@H](C)Cc1ccc2c(c1)OCO2 [MA, bis(3,4-methylenedioxy)-8,8’-lignan]
- expression of CD206 in macrophages in tumor tissues ([1]; LLC tumors of mice): markedly inhibited
- formation of new vessels in tumors (CD31) ([1]; LLC tumors of mice): suppressed the formation of new vessels
- presence of macrophages that infiltrated tumor tissues (CD68) ([1]; LLC tumors of mice): no change
- volume, weight, and size of tumors ([1]; LLC, 1, 10, or 50 µg/g body weight intraperitoneally daily): significantly reduced
- growth of RAW264.7 macrophage cells [2]: did not directly inhibit
- expression of LDHA [3]: not affected
- effect on phospholipase Cγ1 [4]: inhibiting phospholipase Cγ1
- volume, weight, and size of tumors [5]: significantly reduced
- inhibitory effect on drug metabolism [6]: selective inhibitory effect
- number of surviving colonies [7]: significantly reduced
- number of surviving colonies [8]: significantly reduced
- activity of LDH in LLC cell allografts ([9]; tumor tissue lysates): clearly inhibited
- expression of LDHA in LLC cell allografts ([9]; western blot of tumor tissue): did not affect
